Assay results reported in US20220308062A1, “METHODS FOR PREDICTING DRUG RESPONSIVENESS IN SAMPLES FROM CANCER SUBJECTS” (Board of Regents, The University of Texas System, priority 2019, published 2022).

How the values were obtained:
H226 cells = test: Proliferation assay (IncuCyte ZOOM), H226; format: cell-based; settings: Homo sapiens, NCI-H226; H226 squamous cell cancer line; read-out: IC50 from proliferation curves
Experimental: Analysis was performed using IncuCyte ZOOM (Essen BioScience) with images acquired every 3 hr for up to 72 hr. Four images (proliferation) and one image (wound healing) were captured per well for each time point. Data were normalized to controls, and values for 50% effective concentration were calculated using Prism V7.0 (GraphPad software, San Diego, Calif.).

[1] = system: patients with advanced tumors; settings: early results, ref [21]; cited from earlier work
A549 cells = test: RNA-seq of TP-0903-treated A549 cells; format: cell-based, human; settings: A549, 40 nmol/L
Experimental: RNA-seq. Total RNA was extracted from TP-0903-treated and AXL-knockdown A549 cells and from respective controls in two biological replicates by using the PureLink RNA Mini Kit (Thermo Fisher Scientific). Sequencing of cDNAs was performed with Illumina HiSeq3000 as per manufacturer's instructions. Paired-end FASTQ files were generated and aligned with the human reference genome GRCh38 by using STAR alignment software. RSEM was applied to quantify gene expression levels, and fragments per kilobase of transcript per million (FPKM) mapped reads were calculated. The different expression levels of genes were compared between control and treatment groups by using RSEM software. […] Both gene sets were used to perform pathway enrichment analysis on Gene Ontology Consortium (http://geneontology.org/) by using Reactome pathway databases in PANTHER [45, 46]. Significant pathways were further analyzed with gene sets downloaded from the Molecular Signatures Database v6.2 (http://software.broadinstitute.org/gsea/msigdb/). Fold changes of candidate genes were calculated on the basis of log FPKM values and used to generate heat maps.
RNA-seq. […] The RSEM software was applied to quantify expression levels, and fragments per kilo base of transcript per million (FPKM) mapped reads were calculated. […]

[2] = system: PMA-stimulated U937 macrophages cocultured with A549 or H2009; test: U937 coculture with lung cancer cells, CyTOF; format: cell-based, human
Text: Materials and methods. U937 coculture with lung cancer cells. […] The cells were harvested and fixed to process CyTOF staining. Antibodies were conjugated in-house according to the manufacturer's instructions or purchased in pre-conjugated forms from the supplier (Fluidigm). Single cells from cell lines were harvested and stained with cisplatin and metal-conjugated surface antibodies sequentially for viability and surface staining. After fixation and permeabilization, cells were stained with metal-conjugated antibodies. The cells were then labeled with an iridium-containing DNA intercalator (191Ir+ or 193Ir+) for identification of cell events before analysis on a Helios mass cytometer. Signals were bead-normalized using EQ Four Element Calibration Beads.
Signals of samples were normalized using CyTOF software (Version 6.7.1014, Fluidigm). The generated files underwent signal cleanup and filtering for single cells using Cytobank (https://www.cytobank.org/). Macrophage population was gated out based on CD45 expression to generate Flow Cytometry Standard (FCS) file. The gated FCS file were downloaded for further analysis using Cytofkit. The PhenoGraph clustering algorithm in Cytofkit was implemented in R from the Bioconductor website (https://bioconductor.org/packages/cytofkit/). CyTOF data of macrophage were clustered and visualized using t-distributed stochastic neighbor embedding (t-SNE) algorithm based on normalized expression levels (Z-score) of 4 markers (CD14, CD16, CD163 and CD86).

[3] = system: patient-derived organoids (PDOs); test: Patient-derived organoid CellTiter-Glo cell viability; format: cell-based, human
Experimental: Patient-derived organoids (PDOs). Tumor tissues were minced on ice into 1 mm^3 small pieces. Tumor pieces (˜20 μl in volume) were resuspended in 200 μl Matrigel and seeded into 24 well plates for 15 min until gel solidify, followed by culture in advanced DMEM/F12 medium supplemented with B27 and N2 (Thermo Fisher Scientific), 0.01% BSA (Roche), 100 units/m penicillin-streptomycin (Thermo Fisher Scientific), and others (Table 4) for 4-8 weeks to grow organoids. […] The CellTiter-Glo Luminescent Cell Viability assay was used to determine drug responsiveness.

A549 and H2009 cells = test: Western blot analysis; format: cell-based, human; settings: H2009, traditional western blot (FIG. 8C)
Experimental: Western blot analysis. […] Cell lysates were harvested using RIPA buffer. The concentration of protein lysates was determined by Pierce™ BCA Protein Assay Kit (Thermo fisher). Forty micrograms of the total protein extracts were separated by NuPAGE™ 4-12% Bis-Tris Protein Gels (Thermo fisher) and transferred to PVDF membrane. The membrane was then blocked with 5% of Blotting-Grade Blocker (BioRad) in TBST and probed using primary antibodies including: 1) oncogenic pathways: JAK1, pSTAT3, STAT3, pAKT and pERK1/2 (Cell Signaling Technology; 3344S, 9131S, 9139T, 4060, 4377S); 2) cancer stemness markers: CD133 and ALDH1A1 (Cell Signaling Technology; 64326S and 54135S); and 3) EMT markers: Vimentin (Novus; NBP1-92687), N-cadherin, EpCAM (Abcam; ab71916) and CK8/18 (Novus; NBP2-44930); 4) loading control: GAPDH (Cell Signaling Technology; 2118S). Membrane was incubated in HRP-linked secondary antibodies following dilution with TBST (1:5000) at room temperature for one hour. Blots were developed using Western Lightning Plus-ECL Chemiluminescent Reagents (Perkin Elmer, Waltham, Mass.) and Syngene G:BOX Imaging System.

IC50 (H226 cells): 12.9 nM
Compound: CN1CCN(Cc2ccc(Nc3ncc(Cl)c(Nc4ccccc4S(=O)(=O)N(C)C)n3)cc2)CC1 [TP-0903]
tolerability in patients [1]: well tolerated
IL-11 expression (RNA-seq) (A549 cells): down-regulated significantly
IL-11 expression (RNA-seq) (A549 cells; listed as TP0903): markedly downregulated
high CD163 subpopulations ([2]; 20, 40 and 80 nmol/L, increasing concentration): decreased
CD14high/CD16+/CD163high/CD86high macrophage subtype proportion ([2]; 72 hr coculture): decreased
SMAD2 in CD14high/CD16+/CD163high/CD86high subtype ([2]; 72 hr coculture): down-regulated
PDO sensitivity ([3]; PDOs from tumors with high AXL and JAK1): sensitive
PDO response (cell viability) ([3]; PDOs of Pt 008 and 010 (Category I/II), TP-0903 20 nmol/L or ruxolitinib 15 μmol/L, 72 hr): did not respond robustly
SLUG transcription factor levels (A549 and H2009 cells): significantly decreased
